Results as given in ChEMBL document CHEMBL4665808, “Krisynomycins, Imipenem Potentiators against Methicillin-Resistant Staphylococcus aureus, Produced by Streptomyces canus” (2020).
≈ marks a conversion by molar mass, not a printed value.

Assays:
Assay type in all cases: functional
Staphylococcus aureus [1] = test: Potentiation of imipenem-induced activity antibacterial against methicillin-resistance Staphylococcus aureus MB5393 in presence of 2 ug/ml imipenem by broth dilution method
Staphylococcus aureus [2] = test: Potentiation of imipenem-induced activity antibacterial against methicillin-resistance Staphylococcus aureus MB5393 in presence of 4 ug/ml imipenem by broth dilution method
Staphylococcus aureus [3] = test: Potentiation of imipenem-induced activity antibacterial against methicillin-resistance Staphylococcus aureus MB5393 in presence of 1 ug/ml imipenem by broth dilution method
Staphylococcus aureus [4] = test: Antibacterial against methicillin-resistance Staphylococcus aureus MB5393 by broth dilution method

Compound | MIC (Staphylococcus aureus [1]) [µg/mL] | MIC (Staphylococcus aureus [2]) [µg/mL] | MIC (Staphylococcus aureus [3]) [µg/mL] | MIC (Staphylococcus aureus [4]) [µg/mL]
CC(C)=CCc1cccc2[nH]cc(C[C@@H]3NC(=O)[C@H](Cc4c[nH]c5ccccc45)NC(=O)[C@@H]4CCCN4C(=O)[C@@H](CS(=O)(=O)O)NC(=O)[C@@H](NC(=O)[C@@H](NC(=O)[C@H](C)NC(=O)CC(=O)O)C(C)C)COC(=O)[C@H](CO)NC(=O)[C@@H](CC(C)C)NC(=O)[C@@H](C(C)C)NC3=O)c12 | 16 | 8 | 16 | > 128
CC(C)=CCc1cccc2[nH]cc(C[C@@H]3NC(=O)[C@H](Cc4c[nH]c5c(Cl)cccc45)NC(=O)[C@@H]4CCCN4C(=O)[C@@H](CS(=O)(=O)O)NC(=O)[C@@H](NC(=O)[C@@H](NC(=O)[C@H](C)NC(=O)CC(=O)O)C(C)C)COC(=O)[C@H](CO)NC(=O)[C@@H](CC(C)C)NC(=O)[C@@H](C(C)C)NC3=O)c12 | 4 | 2 | 4 | > 128
CC(C)=CCc1ccc(Cl)c2[nH]cc(C[C@@H]3NC(=O)[C@H](Cc4c[nH]c5c(Cl)cccc45)NC(=O)[C@@H]4CCCN4C(=O)[C@@H](CS(=O)(=O)O)NC(=O)[C@@H](NC(=O)[C@@H](NC(=O)[C@H](C)NC(=O)CC(=O)O)C(C)C)COC(=O)[C@H](CO)NC(=O)[C@@H](CC(C)C)NC(=O)[C@@H](C(C)C)NC3=O)c12 | 0.5 | 0.25 | 0.5 | 16 (≈ 11.4 µM)
C[C@@H](O)[C@H]1C(=O)N2C(C(=O)O)=C(SCCNC=N)C[C@H]12 [IMIPENEM ANHYDROUS] |  |  |  | 16 (≈ 53.4 µM)
